Reference: ChEMBL document CHEMBL3885881, “DrugMatrix”

Organism: Rattus norvegicus
Assay: DrugMatrix - Regimen: Daily Repeat
Format: toxicity, organism-based, Sprague-Dawley
Design: regimen Daily Repeat, gender Male, age 6-8 weeks
Details: in vivo, po, route oral GAVAGE, vehicle .5 % CMC; for ABSOLUTE BASOPHIL / ABSOLUTE EOSINOPHIL / ABSOLUTE LYMPHOCYTE / ABSOLUTE MONOCYTE / ABSOLUTE SEGMENTED NEUTROPHIL / BASOPHIL / EOSINOPHIL / ERYTHROCYTE COUNT / HEMATOCRIT / HEMOGLOBIN / LEUKOCYTE COUNT / LYMPHOCYTE / MEAN CORPUSCULAR HEMOGLOBIN / MEAN CORPUSCULAR HEMOGLOBIN CONCENTRATION / MEAN CORPUSCULAR VOLUME / MONOCYTE / NEUTROPHIL / NUCLEATED RED BLOOD CELLS / PLATELET COUNT: tissue Blood; for ALANINE AMINOTRANSFERASE / ALBUMIN / ALKALINE PHOSPHATASE / ASPARTATE AMINOTRANSFERASE / BLOOD UREA NITROGEN / CARBON DIOXIDE / CHLORIDE / CHOLESTEROL / CREATINE PHOSPHOKINASE / CREATININE / GLUCOSE / LACTATE DEHYDROGENASE / LIPASE / PHOSPHORUS / POTASSIUM / SODIUM / TOTAL BILIRUBIN / TOTAL PROTEIN / URIC ACID: tissue Plasma
[1] = 20 mg/kg, 72 h, dose level Low, time 3 day
[2] = 20 mg/kg, 120 h, dose level Low, time 5 day
[3] = 600 mg/kg, 72 h, dose level High, time 3 day
[4] = 600 mg/kg, 120 h, dose level High, time 5 day

In the case of `CC(C)CN(C[C@@H](O)[C@H](Cc1ccccc1)NC(=O)O[C@H]1CCOC1)S(=O)(=O)c1ccc(N)cc1`, the “ABSOLUTE BASOPHIL” value [1] is reported as 0 CELLS/uL, the “ABSOLUTE EOSINOPHIL” value [1] is reported as 148.67 CELLS/uL and the “ABSOLUTE LYMPHOCYTE” value [1] is reported as 12756.67 CELLS/uL. The “ABSOLUTE MONOCYTE” value [1] was 107.67 CELLS/uL, the “ABSOLUTE SEGMENTED NEUTROPHIL” value [1] was 887 CELLS/uL and the BASOPHIL [1] was 0%. The EOSINOPHIL [1] was 1%, the “ERYTHROCYTE COUNT” value [1] was 5.52 x10E6/uL and the HEMATOCRIT [1] was 35.2%. The HEMOGLOBIN [1] was 13.3 G/DL, the “LEUKOCYTE COUNT” value [1] was 13.9 x10E3/uL and the LYMPHOCYTE [1] was 91.67%. The “MEAN CORPUSCULAR HEMOGLOBIN” value [1] was 24.17 pg, the “MEAN CORPUSCULAR HEMOGLOBIN CONCENTRATION” value [1] was 37.8 G/DL and the “MEAN CORPUSCULAR VOLUME” value [1] was 63.87 fL. For the same compound, the MONOCYTE [1] was 0.67%, the NEUTROPHIL [1] was 6.67% and the “NUCLEATED RED BLOOD CELLS” value [1] was 0 /100WBC. The “PLATELET COUNT” value [1] was 1248.33 x10E3/uL, the “ALANINE AMINOTRANSFERASE” value [1] was 50 u/L and the ALBUMIN [1] was 4.23 G/DL. For the same compound, the “ALKALINE PHOSPHATASE” value [1] was 362 u/L, the “ASPARTATE AMINOTRANSFERASE” value [1] was 76.33 u/L and the “BLOOD UREA NITROGEN” value [1] was 16.33 mg/dL. For the same compound, the “CARBON DIOXIDE” value [1] was 26 mmol/L, the CHLORIDE [1] was 102 MEQ/L and the CHOLESTEROL [1] was 67 mg/dL. For the same compound, the “CREATINE PHOSPHOKINASE” value [1] was 172.67 u/L, the CREATININE [1] was 0.21 mg/dL and the GLUCOSE [1] was 169.67 mg/dL. The “LACTATE DEHYDROGENASE” value [1] was 136.67 u/L, the LIPASE [1] was 8 u/L and the PHOSPHORUS [1] was 12.83 mg/dL. For the same compound, the POTASSIUM [1] was 6.23 MEQ/L, the SODIUM [1] was 144.7 MEQ/L and the “TOTAL BILIRUBIN” value [1] was 0.17 mg/dL. The “TOTAL PROTEIN” value [1] was 6.07 G/DL, the “URIC ACID” value [1] was 1.83 mg/dL and the “ABSOLUTE BASOPHIL” value [2] was 0 CELLS/uL. The “ABSOLUTE EOSINOPHIL” value [2] was 74 CELLS/uL, the “ABSOLUTE LYMPHOCYTE” value [2] was 7729 CELLS/uL and the “ABSOLUTE MONOCYTE” value [2] was 39.33 CELLS/uL. For the same compound, the “ABSOLUTE SEGMENTED NEUTROPHIL” value [2] was 524.33 CELLS/uL, the BASOPHIL [2] was 0% and the EOSINOPHIL [2] was 1%. For the same compound, the “ERYTHROCYTE COUNT” value [2] was 5.73 x10E6/uL, the HEMATOCRIT [2] was 35.57% and the HEMOGLOBIN [2] was 13.37 G/DL. For the same compound, the “LEUKOCYTE COUNT” value [2] was 8.37 x10E3/uL, the LYMPHOCYTE [2] was 92% and the “MEAN CORPUSCULAR HEMOGLOBIN” value [2] was 23.33 pg. For the same compound, the “MEAN CORPUSCULAR HEMOGLOBIN CONCENTRATION” value [2] was 37.63 G/DL, the “MEAN CORPUSCULAR VOLUME” value [2] was 62.13 fL and the MONOCYTE [2] was 0.33%. For the same compound, the NEUTROPHIL [2] was 6.67%, the “NUCLEATED RED BLOOD CELLS” value [2] was 0 /100WBC and the “PLATELET COUNT” value [2] was 1179.33 x10E3/uL. For the same compound, the “ALANINE AMINOTRANSFERASE” value [2] was 54.33 u/L, the ALBUMIN [2] was 4.43 G/DL and the “ALKALINE PHOSPHATASE” value [2] was 421.33 u/L. The “ASPARTATE AMINOTRANSFERASE” value [2] was 83 u/L, the “BLOOD UREA NITROGEN” value [2] was 14.33 mg/dL and the “CARBON DIOXIDE” value [2] was 28.33 mmol/L. The CHLORIDE [2] was 101 MEQ/L, the CHOLESTEROL [2] was 68 mg/dL and the “CREATINE PHOSPHOKINASE” value [2] was 229.67 u/L. For the same compound, the CREATININE [2] was 0.2 mg/dL, the GLUCOSE [2] was 141 mg/dL and the “LACTATE DEHYDROGENASE” value [2] was 108 u/L. For the same compound, the LIPASE [2] was 8.67 u/L, the PHOSPHORUS [2] was 12.47 mg/dL and the POTASSIUM [2] was 6.58 MEQ/L. The SODIUM [2] was 146.5 MEQ/L, the “TOTAL BILIRUBIN” value [2] was 0.2 mg/dL and the “TOTAL PROTEIN” value [2] was 6.3 G/DL. The “URIC ACID” value [2] was 1.3 mg/dL, the “ABSOLUTE BASOPHIL” value [3] was 0 CELLS/uL and the “ABSOLUTE EOSINOPHIL” value [3] was 50.33 CELLS/uL. The “ABSOLUTE LYMPHOCYTE” value [3] was 11050.67 CELLS/uL, the “ABSOLUTE MONOCYTE” value [3] was 72.33 CELLS/uL and the “ABSOLUTE SEGMENTED NEUTROPHIL” value [3] was 1093.33 CELLS/uL. The BASOPHIL [3] was 0%, the EOSINOPHIL [3] was 0.33% and the “ERYTHROCYTE COUNT” value [3] was 5.53 x10E6/uL. For the same compound, the HEMATOCRIT [3] was 35.5%, the HEMOGLOBIN [3] was 13.6 G/DL and the “LEUKOCYTE COUNT” value [3] was 12.27 x10E3/uL. For the same compound, the LYMPHOCYTE [3] was 89.67%, the “MEAN CORPUSCULAR HEMOGLOBIN” value [3] was 24.57 pg and the “MEAN CORPUSCULAR HEMOGLOBIN CONCENTRATION” value [3] was 38.27 G/DL. The “MEAN CORPUSCULAR VOLUME” value [3] was 64.1 fL, the MONOCYTE [3] was 0.67% and the NEUTROPHIL [3] was 9.33%. The “NUCLEATED RED BLOOD CELLS” value [3] was 0 /100WBC, the “PLATELET COUNT” value [3] was 1258 x10E3/uL and the “ALANINE AMINOTRANSFERASE” value [3] was 56.67 u/L. For the same compound, the ALBUMIN [3] was 4.33 G/DL, the “ALKALINE PHOSPHATASE” value [3] was 381 u/L and the “ASPARTATE AMINOTRANSFERASE” value [3] was 116.67 u/L. For the same compound, the “BLOOD UREA NITROGEN” value [3] was 16 mg/dL, the “CARBON DIOXIDE” value [3] was 25 mmol/L and the CHLORIDE [3] was 107.33 MEQ/L. For the same compound, the CHOLESTEROL [3] was 69 mg/dL, the “CREATINE PHOSPHOKINASE” value [3] was 1567.67 u/L and the CREATININE [3] was 0.18 mg/dL. The GLUCOSE [3] was 194.33 mg/dL, the “LACTATE DEHYDROGENASE” value [3] was 164.67 u/L and the LIPASE [3] was 8.67 u/L. It also gave a PHOSPHORUS [3] of 14.17 mg/dL, a POTASSIUM [3] of 6.64 MEQ/L and an SODIUM [3] of 145.83 MEQ/L. The “TOTAL BILIRUBIN” value [3] was 0.23 mg/dL, the “TOTAL PROTEIN” value [3] was 5.97 G/DL and the “URIC ACID” value [3] was 2.07 mg/dL. For the same compound, the “ABSOLUTE BASOPHIL” value [4] was 0 CELLS/uL, the “ABSOLUTE EOSINOPHIL” value [4] was 292.33 CELLS/uL and the “ABSOLUTE LYMPHOCYTE” value [4] was 15254.33 CELLS/uL. The “ABSOLUTE MONOCYTE” value [4] was 69 CELLS/uL, the “ABSOLUTE SEGMENTED NEUTROPHIL” value [4] was 1517.67 CELLS/uL and the BASOPHIL [4] was 0%. For the same compound, the EOSINOPHIL [4] was 1.67%, the “ERYTHROCYTE COUNT” value [4] was 5.48 x10E6/uL and the HEMATOCRIT [4] was 34.63%. The HEMOGLOBIN [4] was 13.17 G/DL, the “LEUKOCYTE COUNT” value [4] was 17.13 x10E3/uL and the LYMPHOCYTE [4] was 88.67%. For the same compound, the “MEAN CORPUSCULAR HEMOGLOBIN” value [4] was 24.03 pg, the “MEAN CORPUSCULAR HEMOGLOBIN CONCENTRATION” value [4] was 38 G/DL and the “MEAN CORPUSCULAR VOLUME” value [4] was 63.2 fL. For the same compound, the MONOCYTE [4] was 0.33%, the NEUTROPHIL [4] was 9.33% and the “NUCLEATED RED BLOOD CELLS” value [4] was 0 /100WBC. The “PLATELET COUNT” value [4] was 1347.67 x10E3/uL, the “ALANINE AMINOTRANSFERASE” value [4] was 41.67 u/L and the ALBUMIN [4] was 4.2 G/DL. The “ALKALINE PHOSPHATASE” value [4] was 390 u/L, the “ASPARTATE AMINOTRANSFERASE” value [4] was 76.33 u/L and the “BLOOD UREA NITROGEN” value [4] was 15.67 mg/dL. The “CARBON DIOXIDE” value [4] was 27.33 mmol/L, the CHLORIDE [4] was 102.33 MEQ/L and the CHOLESTEROL [4] was 58.67 mg/dL. The “CREATINE PHOSPHOKINASE” value [4] was 202 u/L, the CREATININE [4] was 0.21 mg/dL and the GLUCOSE [4] was 161.33 mg/dL. For the same compound, the “LACTATE DEHYDROGENASE” value [4] was 95.67 u/L, the LIPASE [4] was 8.33 u/L and the PHOSPHORUS [4] was 12.93 mg/dL. The POTASSIUM [4] was 6.23 MEQ/L, the SODIUM [4] was 144.37 MEQ/L and the “TOTAL BILIRUBIN” value [4] was 0.17 mg/dL. The “TOTAL PROTEIN” value [4] was 6 G/DL and the “URIC ACID” value [4] was 1.77 mg/dL.
